Test results taken from patent US20220170930A1, “METHOD FOR SCREENING COMPOUND FOR TREATING OR PREVENTING POLYQ-RELATED NEURODEGENERATIVE DISEASES” (FUDAN UNIVERSITY, priority 2019, published 2022).
Counter-ions that a name gives are not always drawn.

Tests used:
[1] = tested on: mHTT; test: HTRF mHTT level in HD patient immortalized fibroblasts; conditions: for mHTT level: c-Raf inhibitors and KSP inhibitors at 100 nM; for mHTT levels, comparison of FIG. 9: concentrations below the micromolar level
Procedure: Homogeneous time-resolved fluorescence (HTRF) analysis: the cell or tissue lysate was diluted with the original lysis buffer PBS+1% (v/v) Triton X-100+1×cOmplete™ protease inhibitor to lyse the sample, then HTRF assay buffer (50 mM NaH2PO4, 400 mM NaF, 0.1% BSA, 0.05% (v/v) Tween-20, 1% (v/v) Triton X-100, pH 7.4) was used to dilute the specified antibody pair for detection.
The immortalized fibroblasts of HD patients were treated using the above-mentioned c-Raf inhibitors and KSP inhibitors respectively at a concentration of 100 nM.

[2] = biological target: T1, His-ATXN1-Q92 (Homo sapiens, UniProt P54253, INS208QQQQQQQQQQQQQQQQQQQQQQQQQQQQQQQQQQQQQQQQQQQQQQQQQQQQQQQQQQQQQQQQQQQQQQQQQQQQQQQQ); test: OI-RD affinity screening with His-ATXN1-Q92; type: binding; conditions: OI-RD difference images
T1 construct: made in house; host or cells: HEK293T cells (ATCC, CRL-3216)
T1 sequence (P54253 with tags, fused parts or gaps with the stated changes): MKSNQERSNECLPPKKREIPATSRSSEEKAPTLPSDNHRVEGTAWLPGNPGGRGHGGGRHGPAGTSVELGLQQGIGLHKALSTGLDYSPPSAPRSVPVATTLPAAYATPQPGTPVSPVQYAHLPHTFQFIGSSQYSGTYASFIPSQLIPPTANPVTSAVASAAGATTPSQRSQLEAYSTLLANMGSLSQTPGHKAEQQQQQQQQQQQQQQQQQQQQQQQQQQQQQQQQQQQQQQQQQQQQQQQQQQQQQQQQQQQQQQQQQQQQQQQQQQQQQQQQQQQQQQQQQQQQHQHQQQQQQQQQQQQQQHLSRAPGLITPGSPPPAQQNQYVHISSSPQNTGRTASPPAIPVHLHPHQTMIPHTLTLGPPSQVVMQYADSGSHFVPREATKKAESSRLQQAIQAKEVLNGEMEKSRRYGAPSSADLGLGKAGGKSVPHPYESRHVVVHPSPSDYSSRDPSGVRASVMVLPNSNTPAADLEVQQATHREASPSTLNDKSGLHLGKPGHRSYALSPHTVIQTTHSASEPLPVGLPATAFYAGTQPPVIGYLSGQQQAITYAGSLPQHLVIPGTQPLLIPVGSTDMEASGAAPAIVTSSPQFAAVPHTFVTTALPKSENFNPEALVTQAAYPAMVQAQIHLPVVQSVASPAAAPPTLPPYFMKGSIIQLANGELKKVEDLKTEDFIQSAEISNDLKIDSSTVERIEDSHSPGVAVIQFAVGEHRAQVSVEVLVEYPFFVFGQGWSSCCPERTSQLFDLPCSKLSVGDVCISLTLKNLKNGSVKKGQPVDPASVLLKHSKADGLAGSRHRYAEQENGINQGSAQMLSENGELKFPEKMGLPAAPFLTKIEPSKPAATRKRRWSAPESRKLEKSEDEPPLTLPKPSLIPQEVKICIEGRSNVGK
Procedure: (1) PolyQ-ATXN1 cDNA (where polyQ is Q92) was synthesized de novo and subcloned into pcDNA vector. It transfected into HEK293T cells (ATCC, CRL-3216) to obtain cells expressing His-ATXN1-Q92 (SEQ ID NO: 3 with a His tag at the N-terminal).
(2) The His-ATXN1-Q92 expressed in (1) was purified to obtain ATXN1 with abnormally expanded polyQ.
To identify compound(s) that can bind to ATXN1 with abnormally expanded polyQ, screening was conducted using a method similar to step (1) of 1.1, except for that the target protein HTTexon1-Q72-MBP in step (1) of 1.1 was replaced with His-ATXN1-Q92.

[3] = tested on: Q25-GFP; test: MST affinity with Q25-GFP
Procedure: The affinity of the compound with full-length HTT and LC3B was verified with micro thermophoresis (MST) using Monolith NT.115 instrument from NanoTemper Technologies. The reaction buffer was 20 mM HEPES, pH 7.4, 150 mM NaCl.

[4] = biological target: T2, mutant ATXN1 protein (His-ATXN1-Q92) (Homo sapiens, UniProt P54253, INS208QQQQQQQQQQQQQQQQQQQQQQQQQQQQQQQQQQQQQQQQQQQQQQQQQQQQQQQQQQQQQQQQQQQQQQQQQQQQQQQQ); test: HTRF mutant ATXN1 level in His-ATXN1-Q92-expressing cells; type: cell-based; conditions: 100 nM, 2 days, anti-His-Tb/MW1-D2
T2 construct: expressed in transfected cells; host or cells: HEK293T cells (ATCC, CRL-3216)
T2 sequence (P54253 with tags, fused parts or gaps with the stated changes): as the sequence (P54253 with tags, fused parts or gaps with the stated changes) above

[5] = biological target: T3, MBP-ATXN3-Q28 (Homo sapiens, UniProt P54252, INS305QQQQQQQQQQQQQQQQQQ); test: OI-RD affinity screening with MBP-ATXN3-Q28; type: binding; conditions: OI-RD difference images
T3 construct: His8 with TEV protease cleavage site; made in house; host or cells: Escherichia coli Rosetta(DE3)pLsyS
T3 sequence (P54252 with tags, fused parts or gaps isoform P54252-4 with the stated changes): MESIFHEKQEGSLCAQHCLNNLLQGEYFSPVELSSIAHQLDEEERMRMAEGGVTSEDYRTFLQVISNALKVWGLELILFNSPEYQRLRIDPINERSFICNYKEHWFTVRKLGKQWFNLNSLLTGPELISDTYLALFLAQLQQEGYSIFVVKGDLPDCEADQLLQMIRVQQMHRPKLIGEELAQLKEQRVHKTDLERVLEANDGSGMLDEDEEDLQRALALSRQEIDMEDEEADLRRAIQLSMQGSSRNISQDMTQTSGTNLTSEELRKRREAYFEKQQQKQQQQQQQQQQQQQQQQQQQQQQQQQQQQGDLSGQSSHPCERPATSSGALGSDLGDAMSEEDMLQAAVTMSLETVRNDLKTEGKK
Procedure: (§1) Screening was conducted using a method similar to 1.1, except for that the target protein HTTexon1-Q72-MBP in step (1) of 1.1 was replaced with MBP-ATXN3-Q68 and the target protein HTTexon1-Q25-MBP in step (2) of 1.1 was replaced with MBP-ATXN3-Q28, to obtain compounds that can selectively bind to ATXN3 with abnormally expanded polyQ (MBP-ATXN3-Q68).

[6] = tested on: proteins with expanded polyglutamine (polyQ-GFP); test: OI-RD affinity screening with polyQ-GFP proteins; type: binding; conditions: OI-RD difference images
Procedure: (§2) To identify compound(s) that can selectively bind to proteins containing expanded polyglutamine, screening was conducted using a method similar to 1.1, except for that the target protein HTTexon1-Q72-MBP in step (1) of 1.1 was replaced with the polyQ-GFP protein prepared in 10.1, and the target protein HTTexon1-Q25-MBP in step (2) of 1.1 was replaced with GFP.

[7] = biological target: T4, wild-type ATXN3 protein (ATXN3-Q27) (Homo sapiens, UniProt P54252, G306R/INS305QQQQQQQQQQQQQQQQQ/V212M); test: Western-blot wild-type ATXN3 level in fibroblasts; type: cell-based; conditions: 100 nM (compound 4: 50 nM), 2 days
T4 construct: endogenous in cells; host or cells: wild-type fibroblasts (Q27) and/or the normal allele in SCA3 patient fibroblasts
T4 sequence (P54252 with tags, fused parts or gaps isoform P54252-1 with the stated changes): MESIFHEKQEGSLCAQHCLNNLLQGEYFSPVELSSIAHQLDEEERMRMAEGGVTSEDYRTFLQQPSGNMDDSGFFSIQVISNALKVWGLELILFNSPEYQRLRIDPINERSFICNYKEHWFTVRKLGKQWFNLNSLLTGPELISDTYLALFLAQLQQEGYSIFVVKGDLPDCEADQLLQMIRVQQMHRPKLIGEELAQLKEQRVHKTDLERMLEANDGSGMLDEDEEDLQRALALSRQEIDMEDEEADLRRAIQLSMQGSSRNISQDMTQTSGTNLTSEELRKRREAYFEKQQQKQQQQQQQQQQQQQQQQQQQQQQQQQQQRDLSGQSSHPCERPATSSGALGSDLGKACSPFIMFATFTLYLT
Procedure: (§3) Then the levels of mutant ATXN3 protein (ATXN3-Q74, SEQ ID NO: 2) and wild-type ATXN3 protein (ATXN3-Q27, SEQ ID NO: 7) were determined by Western-blots (FIG. 26). […] Therefore, the compound of the present invention can be used to treat SCA3.

[8] = tested on: Q25-GFP; test: OI-RD affinity screening with Q25-GFP; type: binding; conditions: OI-RD difference images
Excerpt: (1) PolyQ-GFP cDNA sequence (expressing Met-polyQ-GFP, wherein polyQ was Q72 or Q25) was synthesized de novo and subcloned into pcDNA vector. […] And the same method was used to obtain cells expressing Q53-GFP, cells expressing Q46-GFP, and cells expressing Q38-GFP.

[9] = tested on: mHTT; test: Intracerebroventricular injection, mHTT and wtHTT in cortices of HD mice; type: in vivo, mouse; conditions: mouse, in vivo
Procedure: Experimental animals: Hdh^Q140/Q7 mice (3 months old), 4 in each group.
Each test includes three repetitions for each sample, and the mean values was calculated (FIG. 16).

[10] = tested on: GFP; test: OI-RD affinity screening with GFP; type: binding; conditions: OI-RD difference images
Procedure: as §2

[11] = tested on: polyQ-GFP (Q72-GFP, Q25-GFP); test: polyQ-GFP level in HEK293T cells by Incucyte fluorescence counting; type: cell-based; conditions: Q72-GFP vs Q25-GFP expressing HEK293T cells, 100 nM compound 1, 100 nM compound 3 or 50 nM compound 4, 2 days
Excerpt: (1) PolyQ-GFP cDNA sequence (expressing Met-polyQ-GFP, wherein polyQ was Q72 or Q25) was synthesized de novo and subcloned into pcDNA vector. It was transfected into HEK293T cells (ATCC, CRL-3216) through forward transfection to obtain Q72-GFP expressing cells and Q25-GFP expressing cells, respectively. And the same method was used to obtain cells expressing Q53-GFP, cells expressing Q46-GFP, and cells expressing Q38-GFP.
The Q72-GFP expressing cells and Q25-GFP expressing cells obtained in step (1) of 10.1 were used. […] Then the level of polyQ-GFP was measured by Incucyte fluorescence counting (FIG. 25).

[12] = biological target: T5, mutant ATXN3 protein (ATXN3-Q74) (Homo sapiens, UniProt P54252, G306R/INS305QQQQQQQQQQQQQQQQQQQQQQQQQQQQQQQQQQQQQQQQQQQQQQQQQQQQQQQQQQQQQQQQ/V212M); test: Western-blot mutant ATXN3 level in SCA3 patient fibroblasts; type: cell-based; conditions: 100 nM (compound 4: 50 nM), 2 days
T5 construct: endogenous in cells; host or cells: SCA3 patient fibroblasts (Q74)
T5 sequence (P54252 with tags, fused parts or gaps isoform P54252-1 with the stated changes): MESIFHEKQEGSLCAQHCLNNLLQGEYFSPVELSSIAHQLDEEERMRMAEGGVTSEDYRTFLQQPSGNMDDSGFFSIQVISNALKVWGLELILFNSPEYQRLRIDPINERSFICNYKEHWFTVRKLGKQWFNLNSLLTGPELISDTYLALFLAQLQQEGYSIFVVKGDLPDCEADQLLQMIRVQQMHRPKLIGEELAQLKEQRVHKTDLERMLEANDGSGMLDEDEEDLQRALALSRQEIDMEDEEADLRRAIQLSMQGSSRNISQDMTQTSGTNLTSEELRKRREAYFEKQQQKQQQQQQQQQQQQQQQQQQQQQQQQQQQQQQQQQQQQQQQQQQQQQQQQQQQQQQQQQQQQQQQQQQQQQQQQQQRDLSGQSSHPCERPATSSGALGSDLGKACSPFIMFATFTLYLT
Procedure: as §3

[13] = biological target: T3, MBP-ATXN3-Q28; test: MST affinity with MBP-ATXN3-Q28; type: binding
Procedure: Protein concentration was 500 nM.

[14] = biological target: MBP-ATXN3-Q68 (Homo sapiens, UniProt P54252, INS305QQQQQQQQQQQQQQQQQQQQQQQQQQQQQQQQQQQQQQQQQQQQQQQQQQQQQQQQQQ); test: OI-RD affinity screening with MBP-ATXN3-Q68; type: binding; parameters: His8 with TEV protease cleavage site; made in house; host or cells: Escherichia coli Rosetta(DE3)pLsyS; conditions: OI-RD difference images
Sequence of MBP-ATXN3-Q68 (P54252 with tags, fused parts or gaps isoform P54252-4 with the stated changes): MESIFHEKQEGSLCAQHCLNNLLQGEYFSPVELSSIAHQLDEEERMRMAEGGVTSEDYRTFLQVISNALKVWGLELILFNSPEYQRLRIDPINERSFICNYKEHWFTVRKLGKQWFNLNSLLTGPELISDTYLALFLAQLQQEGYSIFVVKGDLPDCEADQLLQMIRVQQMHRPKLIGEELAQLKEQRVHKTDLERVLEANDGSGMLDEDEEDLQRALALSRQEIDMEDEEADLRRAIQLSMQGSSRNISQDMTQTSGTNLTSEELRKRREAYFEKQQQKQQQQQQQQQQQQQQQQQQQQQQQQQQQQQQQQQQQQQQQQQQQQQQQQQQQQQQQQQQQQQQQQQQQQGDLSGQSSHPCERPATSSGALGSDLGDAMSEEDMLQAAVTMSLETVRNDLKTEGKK
Procedure: as §1

[15] = tested on: SQSTM1/p62; test: SQSTM1/p62 level in mouse cortices after ip injection; type: in vivo; conditions: HD mice
Procedure: Using a method similar to 6.2, Hdh^Q140/Q7 mice were administered with injections. A method similar to 7.1 was used to detect the effects of ip-injection of compounds on other known autophagy selective substrate proteins (SQSTM1/p62) in the cortical tissue of Hdh^Q140/Q7 mice.

[16] = in vivo; conditions: mouse, ip, 0.5 mg/kg
Procedure: Experimental method: The compound or control DMSO was diluted with 0.9% NaCl intravenous infusion solution to 0.05 μg/μL. One ip-injection (0.5 mg/kg) was conducted per day. After 14 days of injection, tissue extraction or behavioral experiment were conducted.

CC(C)(C)c1nc(-c2cccc(NS(=O)(=O)c3c(F)cccc3F)c2F)c(-c2ccnc(N)n2)s1 [Dabrafenib]
mHTT level [1]: No decrease in mHTT level was observed

CC(C)Oc1ccc(C(=O)N[C@H](CNC(=O)CN(C)C)Cc2ccc(-c3cn4cccc([C@H](C)O)c4n3)cc2)cc1Cl [GSK923295]
mHTT level [1]: No decrease in mHTT level was observed

CNC(=O)c1cc(Oc2ccc(NC(=O)Nc3ccc(Cl)c(C(F)(F)F)c3)cc2)ccn1 [Sorafenib Tosylate]
mHTT level [1]: No decrease in mHTT level was observed

CCCS(=O)(=O)Nc1ccc(F)c(C(=O)c2c[nH]c3ncc(Cl)cc23)c1F [PLX-4720]
mHTT level [1]: No decrease in mHTT level was observed
mHTT levels, comparison of FIG. 9 [1]: did not reduce mHTT levels

COc1ccc(Oc2cc(NCCC(F)(F)F)c3ncc(-c4ccc(C(=O)NC5CC5)c(C)c4)n3n2)c(F)c1F [BAY1217389]
mHTT level [1]: No decrease in mHTT level was observed
mHTT levels, comparison of FIG. 9 [1]: did not reduce mHTT levels

O=c1cc(-c2ccccc2)c2c(O)cc(O)cc2o1 [compound 4]
binding to His-ATXN1-Q92 [2]: can bind
binding affinity to Q25-GFP [3]: no binding affinity
level of mutant ATXN1 protein (His-ATXN1-Q92) [4]: Decreased levels of mutant ATXN1 were observed
binding to MBP-ATXN3-Q28 [5]: did not bind
binding affinity to proteins with 38 or more glutamine repeats [6]: showed certain binding affinity
wild-type ATXN3 protein level [7]: no decrease in wild-type ATXN3 protein level was observed
binding to Q25-GFP [8]: did not bind
mHTT level in cortices [9]: significantly reduced mHTT level
binding to GFP [10]: did not bind
level of proteins containing expanded polyglutamine in cells (polyQ-GFP) [11]: can selectively reduce the level
mutant ATXN3 protein level [12]: A decrease in mutant ATXN3 protein level was observed
binding affinity with normal ATXN3 protein (MBP-ATXN3-Q28) [13]: no binding affinity
binding to MBP-ATXN3-Q68 [14]: binded
level of SQSTM1/p62 in the cortices [15]: did not change
concentration at 2 h [16]: 9.48 ng/g
mHTT levels, comparison of FIG. 9 [1]: reduces mHTT levels
